Reference: patent US7750036B2 (SB Pharmco Puerto Rico Inc., priority 2004, dated 2010)
Values after ≈ are worked out from the molar mass of the structure shown. Where two headings read alike, the source gives them in different places.

Experiments:
[1] = cited from earlier work
physchem = conditions: pH 7.1, aqueous buffer

| Structure (SMILES) | solubility ([1]; above a pH of 9.0) | saturation solubility ([1]; pH=5, room temperature) | saturation solubility ([1]; pH=7, room temperature) | solubility (physchem) | solubility of salt generated in situ ([1]; acidic medium which simulates gastric fluid) |
| --- | --- | --- | --- | --- | --- |
| COc1ccccc1OCCNCC(O)COc1cccc2[nH]c3ccccc3c12 (racemic) [Carvedilol] | < 1 µg/mL | about 100 μg/mL | about 23 μg/mL | 20 to 30 µg/mL (≈ 49.2 to 73.8 µM) |  |
| COc1ccccc1OCCNCC(O)COc1cccc2[nH]c3ccccc3c12.Cl (centres unmarked) [hydrochloride salt of carvedilol] |  |  |  |  | less soluble |
